Paper PMC11645267, “Novel pharmacologic inhibition of lysine-specific demethylase 1 as a potential therapeutic for glioblastoma” (Cancer Gene Therapy, 2024)

What was measured:
Assay type in all cases: cell-based
KINGS1 = assay: Western blot of global histone modifications; conditions: KINGS1, 5 μM, 96 h
Method: (§1) The effects of S2172 on global histone modifications in GSCs were examined using western blot analysis. GSC cells were treated with 5 μM of S2172 since […] of the cells are still viable at this concentration (Fig. 2, Supplementary Fig. S1E). […] Treatment of GSCs with S2172 increased the overall levels of H3K4me2 as well as H3K9me2. However, these changes were not statistically significant (Fig. 2A, B). […]
(§2) instructions. For GSC cells, the CellTiter-Glo 3D Viability Assay (Promega, Madison, WI, USA) was used to measure the living cells. All proliferation experiments were repeated […]
(§3) The density of bands was quantified using ImageJ software (https://imagej.nih.gov/ij/). […]
(§4) When mice were scanned with MRI, mice were anesthetized with isoflurane (3% in air) and placed in MRS 3017 Benchtop MRI Systems (MR Solutions, Guildford, UK). Using MRI images, tumor volumes were obtained by compiling tumor areas from all slices that contained tumors and calculated by ImageJ software (https://imagej.nih.gov/ij/) {Towner, […]
B. Western blot analysis of LSD1,MYC, Nestin, SOX2,and ACTB in same cells as shown in panel A. ACTB was used as a loading control. […] Quantification of signal intensities of the Western blot (right panel). […] Right panel: Quantification of band signal intensities from the Western blot. […]

GSC cells = assay: mRNA expression of super-enhancer-associated genes; conditions: 96 h
Method: RNA-seq analysis was conducted to examine gene expression changes associated with super-enhancers/enhancers. Among the genes with de novo H3K4me2 modification, the average log2 fold changes (S2172 treatment relative to DMSO treatment) were −0.12 ± 0.03 for super-enhancer-related genes and −0.01 ± 0.01 for typical enhancer-related genes (P = 0.0004) (Supplementary Fig. S6B). In contrast, among the genes with increased H3K4me2 modification, the average log2 fold changes were −0.04 ± 0.01 for super-enhancer-related genes and −0.07 ± 001 for typical enhancer-related genes (P = 0.028) (Supplementary Fig. S6C). […]
as §2
Total RNA from the cell lines was extracted using TRIzol (Thermo Fisher Scientific), followed by reverse-transcription using Prime Script RT Master Mix (Takara, Kusatsu, Japan). TaqMan qPCR (Roche Diagnostics, Basel, Switzerland) and SYBR Green qPCR (TOYOBO, Osaka, Japan) were performed at least in triplicate for the target genes.
Expression levels of each gene were normalized to GAPDH. GAPDH for TaqMan PCR assays was Hs.PT.39a.22214836 (Integrated DNA Technologies, Coralville, IA, USA).
Oligonucleotide primers used for SYBR Green assays are shown in Supplementary […]

LN229 = assay: Western blot of global histone modifications; conditions: LN229, 5 μM, 96 h
Method: as §1, §2, §3, §4
A. Western blot analysis (left panel) of H3K4me1, H3K4me2, H3K4me3, and H3K9me2 after treatment with either DMSO or S2172 5μM for 96 h in LN229. […] Quantification of signal intensity of western blot (right panel). […] Ratio was calculated by dividing cleaved band intensity by total protein band intensity. […]

NC1CCC(NC2CC2c2cc(F)cc(F)c2OCc2ccccc2)CC1 (stereo not drawn) [S2172]
levels of H3K4me1, H3K4me2, H3K4me3, and H3K9me2 (KINGS1): slight increase
expression of super-enhancer-associated genes EGR1 and CDK6 (GSC cells): downregulated
level of H3K4me2 (LN229): significantly increased
